# Legend:
# Assay type in all cases: cell-based, human
# HepG2 cells [1] = test: Cell cycle analysis (PI staining, flow cytometry); conditions: HepG2, 2 µM (as printed in text), 48 h
# Protocol: Cell cycle distributions in HepG2 cells were determined through propidium iodide (PI) staining and analysed by flow cytometry. HepG2 cells were seeded into a six-well plate at 5 × 10^5 cell/mL and treated with different concentrations of compound 10g for 48 h. After treatment, cells were detached with 0.25% trypsin, harvested by centrifugation, washed twice with ice-cold PBS and then fixed and permeabilised with ice-cold 70% ethanol at 4 °C overnight. Ethanol was removed and the cells were washed twice with ice-cold PBS. After this, the cells were treated with 100 µL of RNase (100 µg/mL) at 37 °C for 30 min, followed by incubation with 400 µl of DNA staining solution (PI) (1 mg/mL) in the dark at 4 °C for 30 min. The samples were analyzed by a flow cytometer (Becton-Dickinson FACSCalibur, NJ, USA) and data were analysed using the FlowJo software (Becton-Dickinson & Co, Totowa, NJ, USA).
# pERK1/2 = test: Western blot of ERK and pERK in HepG2 cells; conditions: 48 h
# Protocol: HepG2 cells were seeded at a density of 5 × 10^6 cells per well and attached for 8 h, and then treated with different concentrations of compound 10g for 48 h. After the treatment, the cells were harvested and washed twice with PBS. The harvested cells were lysed with radio-immunoprecipitation assay (RIPA) lysis buffer (Beyotime Biotech., Nantong, China) with 1% cocktail (Sigma-Aldrich, USA). Whole-cell protein lysates were prepared and centrifuged at 12,000 rpm for 10 min at 4 °C. The total proteins were determined using Bradford reagent (Bio-Rad Laboratories, Inc., USA). Exactly 40 µg of protein per lane was separated through sodium dodecyl sulfate-polyacrylamide gel electrophoresis and then transferred onto a polyvinylidene difluoride membrane (Millipore, Bedford, MA, USA). The membranes were incubated with each antibody and detected through immunoblot analysis. All of the antibodies were purchased from Cell signaling Technology, Inc. (Boston, MA, USA) and diluted in accordance with the manufacturer’s instruction. Proteins were visualized using a C-Digit® imaging system (LI-COR Biosciences, Lincoln, NE, USA).
# HepG2 cells [2] = test: Lactate dehydrogenase (LDH) leakage assay; conditions: HepG2, 5 µM, 24 h
# Protocol: The cell membrane integrity was determined by LDH leakage assay by using a LDH assay kit (Beyotime, China). In brief, HepG2 cells were plated on 96-well plates at the density of 5 × 10^3 cells per well and allowed to attach overnight. After being incubated with compound 10g for 24 h, the supernatants were collected and centrifuged at the speed of 1000 rpm and were subjected to LDH detection as the description in the manual. The absorbance at 490 nm was measured by a Cytation 3 Cell Imaging Multi-Mode Reader (BioTek Instruments, Inc., Winooski, VT, USA).
# HepG2 cells [3] = test: Annexin V-FITC/PI dual staining assay; conditions: HepG2, 2 µM (as printed in text), 48 h
# Protocol: The extent of apoptosis was quantitatively measured using Annexin V-FITC/PI dual staining assay. HepG2 cells were seeded into a six-well plate at 5 × 10^5 cells per well in 10% foetal calf serum (FBS)-DMEM into six-well plates and treated with different concentrations of the indicated compound 10g for 48 h. The cells were detached with 0.25% trypsin, washed with ice-cold PBS for twice and then resuspended in 1 × Binding buffer (0.1 M Hepes/NaOH (pH 7.4), 1.4 M NaCl, 25 mM CaCl2). The cells were stained with 5 µL of Annexin V-FITC and 5 µL of PI (propidium iodide) to each tube. The cells were gently vortexed and incubated in the dark at room temperature for 15 min and then keep them at 4 °C. The samples were analysed by a flow cytometer (Becton-Dickinson FACSCalibur, NJ, USA) and data were analysed using the FlowJo software (Becton-Dickinson & Co, Totowa, NJ, USA).
smiles,measurement,setting,value
"CCOc1ccc2c(c1)c1c(n2CCN2CCNCC2)-c2cc(C(C)C)ccc2C2(C)CCCC(C)(C(=O)OC)C12 (centres unmarked) [Compound 10g, 2,3,4,4a,9,13c-Hexahydro-12-ethoxy-7-isopropyl-1,4a-dimethyl-9–(2-(piperazin-1-yl)ethyl)-1H-dibenzo[a,c]carbazole-1-carboxylic acid methyl ester]",G0/G1 phase cells,HepG2 cells [1],55.37%
same,percentage of cells in G2/M phase,HepG2 cells [1],20.09%
same,"expression level of pERK1/2, % of the control group",pERK1/2; 0.1 µM,88.8%
same,"expression level of pERK1/2, % of the control group",pERK1/2; 0.5 µM,43.8%
same,"expression level of pERK1/2, % of the control group",pERK1/2; 1.0 µM,34.2%
same,expression levels of ERK1/2 (in words),pERK1/2; 0.1-1.0 µM,decreased slightly
same,relative LDH leakage level,HepG2 cells [2],93.03%
same,percentage of early and late apoptotic cells,HepG2 cells [3],60.02%

# — PMC6720511, “Synthesis and biological evaluation of novel N-(piperazin-1-yl)alkyl-1H-dibenzo[a,c]carbazole derivatives of dehydroabietic acid as potential MEK inhibitors” (Journal of Enzyme Inhibition and Medicinal Chemistry, 2019)
